Earlier results, collected in patent publication US20260335223A1, “Topical Copolymer Formulations for Hydrophobic Drug Delivery” (1376683 B.C. LTD, priority 2023, published 2026).

Columns and labels:
[1] = diblock copolymer micelles, background; cited from earlier work
[2] = background statement; cited from earlier work

Q: Which results are given for `CC[C@@]1(O)C(=O)OCc2c1cc1n(c2=O)Cc2cc3ccccc3nc2-1` [camptothecin]?
A: Formation of drug-loaded micelles [1]: do not form drug-loaded micelles; Water solubility [2]: 1 µg/mL
